Positions of bridges follow the written chain, without caps; N, C: chain ends. Non-standard residues stand in square brackets, D forms with d. Residues, ends and D or L forms follow the SMILES beside them. *: point of attachment. DOTA = O=C(O)CN1CCN(CC(=O)O)CCN(CC(=O)*)CCN(CC(=O)O)CC1; dPhe(4-NHCONH2) = NC(=O)Nc1ccc(C[C@@H](N)C(=O)O)cc1; Dihydroorotyl(S) = O=C1C[C@@H](C(=O)*)NC(=O)N1; Phe(4-Cl) = N[C@@H](Cc1ccc(Cl)cc1)C(=O)O; Phe(4-NH2) = Nc1ccc(C[C@H](N)C(=O)O)cc1
Key:
[1] = system: H69 tumor tissues expressing SSTR2; test: Uptake and autoradiography of H69 tumor sections; format: binding, human; details: 10^−9 M, 90 min, rt, 10 μm sections, phosphor screen 48 h
Description: Subcutaneous fresh frozen H69 tumor tissues were cut at 10 μm thickness and immediately mounted on Starfrost glass slides (Thermo Scientific; Bleiswijk, The Netherlands). Tissue sections were incubated with washing buffer (167 mM Tris-HCl, 5 mM MgCl2) containing 0.25% BSA for 10 min at rt to prevent nonspecific binding. […] Each slide was drained off and washed with PBS. Finally, the slides were exposed to super-resolution phosphor screens for 48 h and imaged with the Cyclone system (PerkinElmer; Waltham, MA, USA). Images were analyzed and quantified using the Optiquant software Version 5 (PerkinElmer; Waltham, MA, USA).

in vivo [2] = details: mouse, iv, 20 MBq/0.5 nmol per animal, total radioactivity
in vivo [3] = details: mouse, iv, 0.5 nmol, total radioactivity
U2OS-SSTR2 cells = test: Uptake and internalization assay; format: cell-based, human; details: 10^−9 M, 2 h, 37 °C, gamma counter
Description: Human osteosarcoma cells (U2OS) stably expressing the SSTR2 receptor were used in all in vitro cell assays. Cells were cultured in Dulbecco’s modified Eagle’s medium (DMEM) from Gibco (Paisley, UK) supplemented with 2 mM L-glutamine, 10% fetal bovine serum (FBS), 50 units/mL penicillin, and 50 μg/mL streptomycin (Sigma Aldrich; Haarlerbergweg, The Netherlands) and maintained at 37 °C and in a 5% CO2 humidified chamber. Passages were performed weekly using trypsin/EDTA (0.05%/0.02% w/v).
Cells were seeded in 6-well plates 48 h before the experiment (2 × 10^5 cells/well). […] After incubation, medium was removed, and cells were washed twice with PBS. The membrane-bound fraction was collected by incubating cells with an acid buffer (50 mM glycine, 100 mM sodium chloride (NaCl), pH 2.8) for 10 min at rt. Cells were lysed using 0.5 M NaOH for 10 min at rt to acquire the internalized fraction. Both fractions were counted in a γ-counter, and data were expressed as percentage of added dose.

[4] = set-up: method as in PMID 29668724; details: literature value; cited from earlier work

With `C[C@@H](O)[C@@H]1NC(=O)[C@H](CCCCN)NC(=O)[C@@H](Cc2ccc(NC(N)=O)cc2)NC(=O)[C@H](Cc2ccc(NC(=O)[C@@H]3CC(=O)NC(=O)N3)cc2)NC(=O)[C@H](NC(=O)[C@H](Cc2ccc(Cl)cc2)NC(=O)CN2CCN(CC(=O)O)CCN(CC(=O)O)CCN(CC(=O)O)CC2)CSSC[C@@H](C(=O)N[C@H](Cc2ccc(O)cc2)C(N)=O)NC1=O` [[^177Lu]Lu-JR11, metal not drawn] ({DOTA}-[Phe(4-Cl)][dC][Phe(4-NH2)](Dihydroorotyl(S))[dPhe(4-NHCONH2)]KTC[dY]-NH2; disulfide 2-7; N-terminus and C-terminus assumed) the “Radioactive uptake in H69 tumor tissue sections (autoradiography)” value [1] was 930 ± 37 DLU/mm^2, the tissue uptake per volume at 4 h (in vivo [2]) was 4 ± 0.6 %ID/mL and the tissue uptake per volume at 24 h (in vivo [2]) was 3.3 ± 0.7 %ID/mL. For the same compound, the tissue uptake per volume at 48 h (in vivo [2]) was 2.1 ± 0.5 %ID/mL, the tissue uptake per volume at 72 h (in vivo [2]) was 1.8 ± 0.4 %ID/mL and the tissue to tissue ratio at 4 h (in vivo [3]) was 0.6 ± 0.05. It also gave a tissue to tissue ratio at 72 h (in vivo [3]) of 1.2 ± 0.3, a tissue uptake at 4 h (in vivo [3]; Bone Marrow uptake) of 1.1 ± 2 %ID/g and a tissue uptake at 4 h (in vivo [3]; Intestine uptake) of 0.5 ± 0.1 %ID/g. For the same compound, the tissue uptake at 4 h (in vivo [3]; Kidneys uptake) was 12.6 ± 1.2 %ID/g, the tissue uptake at 24 h (in vivo [3]; Kidneys uptake) was 8.6 ± 2.3 %ID/g and the tissue uptake at 48 h (in vivo [3]; Kidneys uptake) was 4.1 ± 0.2 %ID/g. For the same compound, the tissue uptake at 72 h (in vivo [3]; Kidneys uptake) was 3.4 ± 1.4 %ID/g, the tissue uptake at 4 h (in vivo [3]; Liver uptake) was 0.5 %ID/g and the tissue uptake at 24 h (in vivo [3]; Liver uptake) was 0.3 %ID/g. The tissue uptake at 4 h (in vivo [3]; Lung uptake) was 1.3 ± 0.3 %ID/g, the tissue uptake at 24 h (in vivo [3]; Lung uptake) was 0.4 %ID/g and the tissue uptake at 4 h (in vivo [3]; Pancreas uptake) was 3.5 ± 0.4 %ID/g. The tissue uptake at 48 h (in vivo [3]; Pancreas uptake) was 0.6 ± 0.1 %ID/g, the tissue uptake at 72 h (in vivo [3]; Pancreas uptake) was 0.3 %ID/g and the tissue uptake at 4 h (in vivo [3]; Skin uptake) was 0.3 ± 0.1 %ID/g. For the same compound, the tissue uptake at 4 h (in vivo [3]; Spleen uptake) was 0.3 ± 0.1 %ID/g, the tissue uptake at 4 h (in vivo [3]; Stomach uptake) was 1.7 ± 0.3 %ID/g and the tissue uptake at 24 h (in vivo [3]; Stomach uptake) was 1.5 ± 1.2 %ID/g. It also gave a tissue uptake at 48 h (in vivo [3]; Stomach uptake) of 0.6 ± 0.2 %ID/g, a tissue uptake at 72 h (in vivo [3]; Stomach uptake) of 0.4 ± 0.1 %ID/g and a tissue uptake at 4 h (in vivo [3]; Tumor uptake) of 8.4 ± 0.5 %ID/g. For the same compound, the tissue uptake at 24 h (in vivo [3]; Tumor uptake) was 6.1 ± 0.5 %ID/g, the tissue uptake at 48 h (in vivo [3]; Tumor uptake) was 4.6 ± 0.3 %ID/g and the tissue uptake at 72 h (in vivo [3]; Tumor uptake) was 3.6 ± 0.4 %ID/g. For the same compound, the “Total uptake in U2OS-SSTR2 cells” value (U2OS-SSTR2 cells) was 16.2 ± 3.0 % added dose and the “Log D7.4” value [4] was −2.5 [18].

From article PMC9503898, “Synthesis and Evaluation of Two Long-Acting SSTR2 Antagonists for Radionuclide Therapy of Neuroendocrine Tumors” (Pharmaceuticals, 2022)
